# Laboratory results: patent EP0791056B1, “LIPID-CLEAVAGE ENZYME COMPLEX” (priority 1994, dated 1996)
# Tests used:
# [1] = test system: Phosphodiesterase aus Kalbsmilz; test: Enzymatic cleavage of AZT-DMDOPE, detection of cleavage products by thin-layer chromatography; type: biochemical; settings: 10 mg AZT-DMDOPE in 0,1 M Tris, 0,5 mg enzyme, 15 h + 6 h at 37 °C
# Procedure: (§1) 10 mg (3'-Desoxy-3'-azidothymidin)-5'-phosphorsäure-(3-dodecyl-mercapto-2-decyl-oxy)-propylester (AZT-DMDOPE) werden in 0,5 ml 0,1 M Tris-Pufferlösung suspendiert und nach Zugabe des Enzyms (0,5 mg bei Phosphodiesterase und 0,1 mg bei Phospholipase/Nuclease) 15 Stunden bei 37 °C inkubiert. Anschließend wird die Lösung dünnschichtchromatographisch untersucht. Nach Zugabe von 5 Tropfen gesättigter NaHCO3-Lösung wurde weitere 6 Stunden bei 37 °C inkubiert und anschließend die Lösung dünnschichtchromatographisch untersucht.
# (§2) Durch Dünnschichtchromatographie mit verschiedenen Elutionsmitteln wurde die Lösung hinsichtlich der Bildung der möglichen Spaltprodukte (AZT, AZT-monophosphat, DMDOP und Lipidmonophosphat) untersucht.
# (§3) • a) Phospholipase C aus Bacillus cereus, 2000 U/0,5 ml, Boehringer Mannheim GmbH • b) Phospholipase D, Typ I, aus Kohl, 150 - 300 U/mg, Sigma • c) Phosphodiesterase aus Kalbsmilz, 2 U/mg, Boehringer Mannheim GmbH • d) Phosphodiesterase aus Schlangengift, Boehringer Mannheim GmbH • e) Nuclease aus Staphylococcus aureus, 15 000 U/mg, Boehringer Mannheim GmbH • f) LCE (Lipid-Cleavage-Enzyme)
# [2] = test system: Phospholipase D, Typ I, aus Kohl; test: as above; type: biochemical; settings: 10 mg AZT-DMDOPE in 0,1 M Tris, 0,1 mg enzyme, 15 h + 6 h at 37 °C; at the height of the lipid phosphate
# Procedure: as §1, §2, §3
# LCE = test: Substrate cleavage by LCE; type: biochemical; settings: cleavage to drug monophosphate and DMDOP
# Description: Das Enzym wird vorzugsweise aus humanen peripheren Blutleukozyten, die zuvor durch PHA oder andere Stimulantien (z.B. Cytokine, etc.) aktiviert wurden, oder aus murinen Nierenzellen isoliert. Aus vorläufigen Untersuchungen ergibt sich ein Molekulargewicht von etwa 120.000 - 160.000, bestimmt nach der SDS-PAGE-Methode. Zellen, die dieses Enzym enthalten, können auf einfache Weise dadurch identifiziert werden, indem sie unter geeigneten Testbedingungen mit einer Lösung von AZT-DMDOPE oder FLT-DMDOPE versetzt werden und die Spaltprodukte AZT-monophosphat bzw. FLT-monophosphat oder DMDOP nachgewiesen werden, beispielsweise durch dünnschichtchromatographische Methoden oder im Fall von radioaktiv markierten Proben durch szintillatographische Verfahren (siehe Beispiele 4 - 7). Im Gegensatz zu den biochemisch verwandten Phospholipasen C oder -D wird das LCE nicht durch bekannte Inhibitoren von Phospholipase C oder -D gehemmt oder durch Aktivatoren von Phospholipase C oder -D aktiviert. Im Gegensatz zu Phospholipase C wird das Enzym durch die Substanz D 609 (Tricyclodecan-9-yl-xanthogenat; C11H15OS2 K) aktiviert, während D 609 Phospholipase C inhibiert.
# [3] = test system: Zellhomogenate humaner PBL; test: Enzymatic cleavage of [14C]-AZT-DMDOPE by cell homogenates, TLC of metabolites; type: in vitro ADME, human
# Procedure: Die Spaltung von AZT-DMDOPE wurde mit Hilfe eines Enzym-Assays mit [^14C]-AZT-DMDOPE und AZT-DMDOPE als Substrat untersucht. Als Enzymquelle wurden zunächst Zellhomogenate von CEM-SS-Zellen und humanen PBL verwendet. Tab.
# Letztere wurden sowohl nach Stimulation mit PHA-M als auch in nichtstimuliertem Zustand direkt nach ihrer Isolierung homogenisiert und im Enzym-Assay eingesetzt.
# Zur Herstellung der Zellhomogenate wurden Zellsuspensionen mit einer Dichte von 5 x10^7 Zellen/ml 50 mM Tris (pH 7.4) im Glashomogenisator mechanisch aufgeschlossen. Der Zellaufschluß wurde hierbei im Umkehr-Phasenkontrast-Mikroskop optisch kontrolliert. Tab.
# Zunächst wurde 1 ml dieses Zellhomogenales in dem Enzym-Assay ohne vorherige Bestimmung der Proteinkonzentration eingesetzt.
# Zur Gewährleistung einer Substratsättigung wurden weitere 50 nmol der nichtradioaktiv markierten Verbindung hinzugefügt. [^14C]-AZT-DMDOPE trägt die radioaktive Markierung im Thioetherlipidteil und erlaubt somit eine eindeutige Identifikation der potentiellen Metabolits [^14-C]DMDOP.
# Die Ansätze wurden für 1, 3, 6 und 24 h im Wasserbad bei 37 °C inkubiert. Als Vergleich wurde ein Ansatz ohne Zugabe von Zellhomogenat mitgeführt. Anschließend wurden die Spaltprodukte mit Diethylether:2-Propanol (9:1, v/v) extrahiert und dünnschichtchromatographisch im IBA- und IBAE-System analysiert (Abb. 18). […]
# P3X63Ag8.653-Zellen = test: Intracellular concentrations of AZT and AZT nucleotides (radioimmunoassay) in thymidine kinase deficient cells; type: in vitro ADME; settings: for maximale Konzentrationen an AZT und AZT-Nukleotiden: after 6 h; for maximale Konzentrationen, nur AZT erfaßt: after 24 h, without alkaline phosphatase; for Substanzspiegel an phosphoryliertem AZT: comparison before/after alkaline phosphatase
# Description: Die Bestimmung der intrazellulären Konzentrationen an AZT und AZT-Nukleotiden in Thymidikinasedefizienten Zellen sollte weitere Erkenntnisse über die intrazelluläre Spaltung der Testsubstanz AZT-DMDOPE liefern. Intrazelluläres AZT kann in diesen Zellen aufgrund eines Mangels an Thymidin-Kinase (TK) nicht in ATZ-MP und somit in das therapeutisch wirksame AZT-TP überführt werden. Die Bestimmung der intrazellulären Konzentrationen an AZT und AZT-Nukleotiden nach Inkubation mit AZT-DMDOPE könnte somit einen weiteren Hinweis auf die Spaltung der Teststubstanz geben.
# Hierfür wurden in Gewebekulturschalen (60 x 15 mm) 1 x 10^7 Zellen in RPMI 1640 Komplettmedium I mit 0.03 bzw. 0.3 µg AZT/ml und 1 bzw. 10 µg AZT-DMDOPE/ml über 6, 24 und 48 h inkubiert. Nach Extraktion von AZT und der AZT-Nukleotide und einer Behandlung mit alkalischer Phosphatase wurde die Konzentration an AZT mit Hilfe des Radioimmuno-Assays bestimmt.
smiles,measurement,setting,value
"CCCCCCCCCCCCSCC(COP(=O)(O)OC[C@H]1O[C@@H](n2cc(C)c(=O)[nH]c2=O)C[C@@H]1N=[N+]=[N-])OCCCCCCCCCC (some centres unmarked) [AZT-DMDOPE, (3'-Desoxy-3'-azidothymidin)-5'-phosphorsäure-(3-dodecyl-mercapto-2-decyloxy)-propylester]",Fluoreszenzauslöschung DC,[1],negativ
same,Fluoreszenzauslöschung DC,[2],schwach
same,Spaltung durch LCE,LCE,spaltet
same,Metabolisierung von AZT-DMDOPE,[3],zu DMDOP und AZT-MP metabolisiert
same,maximale Konzentrationen an AZT und AZT-Nukleotiden,P3X63Ag8.653-Zellen; 1 µg AZT-DMDOPE/ml,0.55 ng/10^6 Zellen
same,"maximale Konzentrationen, nur AZT erfaßt",P3X63Ag8.653-Zellen; 1 µg AZT-DMDOPE/ml,0.05 ng/mL
same,Substanzspiegel an phosphoryliertem AZT,P3X63Ag8.653-Zellen; 1 µg AZT-DMDOPE/ml,0.48 ng/10^6 Zellen
same,maximale Konzentrationen an AZT und AZT-Nukleotiden,P3X63Ag8.653-Zellen; 10 µg AZT-DMDOPE/ml,4.40 ng/10^6 Zellen
same,"maximale Konzentrationen, nur AZT erfaßt",P3X63Ag8.653-Zellen; 10 µg AZT-DMDOPE/ml,1.10 ng/mL
same,Substanzspiegel an phosphoryliertem AZT,P3X63Ag8.653-Zellen; 10 µg AZT-DMDOPE/ml,2.42 ng/10^6 Zellen
same,intrazelluläre Konzentrationen an AZT und AZT-Nukleotiden im Vergleich zu äquipotenten Konzentrationen an AZT,"P3X63Ag8.653-Zellen; 6, 24 and 48 h incubation",deutlich höher
